Source: the kinase profiling compilation of Christmann-Franck et al. (2016)
Each block holds one compound with its values, some of them ahead of it.

What was measured:
Assay in all cases: KINOMEscan competition binding
Conditions in all cases: compound 10.0 µM
CDK7 (human) = CDK7 (human) (UniProt P50613)
MATK (human) = MATK (human) (UniProt P42679)
[1] = test system: FLT3 (human), P36888 [N841I]
TGFBR1 (human) = TGFBR1 (human) (UniProt P36897)
GRK1 (human) = GRK1 (human) (UniProt Q15835)
AXL (human) = AXL (human) (UniProt P30530)
ACVR2B (human) = ACVR2B (human) (UniProt Q13705)
CSNK1A1L (human) = CSNK1A1L (human) (UniProt Q8N752)
MAP4K3 (human) = MAP4K3 (human) (UniProt Q8IVH8)
PLK3 (human) = PLK3 (human) (UniProt Q9H4B4)
CDK19 (human) = CDK19 (human) (UniProt Q9BWU1)
AKT1 (human) = AKT1 (human) (UniProt P31749)
RPS6KA2 KD2 (human) = RPS6KA2 KD2 (human) (UniProt Q15349)
RPS6KA4 KD2 (human) = RPS6KA4 KD2 (human) (UniProt O75676)
MAP3K2 (human) = MAP3K2 (human) (UniProt Q9Y2U5)
PAK4 (human) = PAK4 (human) (UniProt O96013)
ACVR1 (human) = ACVR1 (human) (UniProt Q04771)
TBK1 (human) = TBK1 (human) (UniProt Q9UHD2)
LCK (human) = LCK (human) (UniProt P06239)
RIOK2 (human) = RIOK2 (human) (UniProt Q9BVS4)
PDPK1 (human) = PDPK1 (human) (UniProt O15530)
MAST1 (human) = MAST1 (human) (UniProt Q9Y2H9)
[2] = test system: PIK3CA (human), P42336 [H1047L]
BMP2K (human) = BMP2K (human) (UniProt Q9NSY1)
AKT3 (human) = AKT3 (human) (UniProt Q9Y243)
STK38 (human) = STK38 (human) (UniProt Q15208)
RET (human) = RET (human) (UniProt P07949)
CHUK (human) = CHUK (human) (UniProt O15111)
YES1 (human) = YES1 (human) (UniProt P07947)
SRPK3 (human) = SRPK3 (human) (UniProt Q9UPE1)
[3] = test system: PIK3CA (human), P42336 [E542K]
DCLK3 (human) = DCLK3 (human) (UniProt Q9C098)
TXK (human) = TXK (human) (UniProt P42681)
PIP5K1A (human) = PIP5K1A (human) (UniProt Q99755)
MAPK11 (human) = MAPK11 (human) (UniProt Q15759)
PAK6 (human) = PAK6 (human) (UniProt Q9NQU5)
CDK14 (human) = CDK14 (human) (UniProt O94921)
EPHB6 (human) = EPHB6 (human) (UniProt O15197)
[4] = test system: KIT (human), P10721 [D816V]
IRAK3 (human) = IRAK3 (human) (UniProt Q9Y616)
[5] = test system: MET (human), P08581 [Y1235D]
CSNK1G2 (human) = CSNK1G2 (human) (UniProt P78368)

Chain of GRK1 (human) (Q15835 whole entry, looked up): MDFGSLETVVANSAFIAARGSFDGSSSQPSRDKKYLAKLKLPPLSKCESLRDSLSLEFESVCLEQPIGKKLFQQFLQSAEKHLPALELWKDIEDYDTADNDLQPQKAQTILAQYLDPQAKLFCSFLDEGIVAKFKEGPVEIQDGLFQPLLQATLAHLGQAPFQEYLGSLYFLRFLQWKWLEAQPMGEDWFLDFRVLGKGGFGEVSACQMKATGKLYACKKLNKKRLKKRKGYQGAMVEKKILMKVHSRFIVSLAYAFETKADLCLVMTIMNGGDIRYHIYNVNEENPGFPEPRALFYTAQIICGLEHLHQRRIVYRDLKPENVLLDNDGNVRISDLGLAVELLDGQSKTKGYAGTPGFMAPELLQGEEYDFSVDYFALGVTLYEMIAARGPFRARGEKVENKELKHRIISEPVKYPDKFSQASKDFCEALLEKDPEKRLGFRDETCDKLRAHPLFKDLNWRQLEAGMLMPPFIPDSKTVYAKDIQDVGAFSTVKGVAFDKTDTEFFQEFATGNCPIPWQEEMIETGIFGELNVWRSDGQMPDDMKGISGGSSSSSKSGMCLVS
Chain of DCLK3 (human) (Q9C098 whole entry, looked up): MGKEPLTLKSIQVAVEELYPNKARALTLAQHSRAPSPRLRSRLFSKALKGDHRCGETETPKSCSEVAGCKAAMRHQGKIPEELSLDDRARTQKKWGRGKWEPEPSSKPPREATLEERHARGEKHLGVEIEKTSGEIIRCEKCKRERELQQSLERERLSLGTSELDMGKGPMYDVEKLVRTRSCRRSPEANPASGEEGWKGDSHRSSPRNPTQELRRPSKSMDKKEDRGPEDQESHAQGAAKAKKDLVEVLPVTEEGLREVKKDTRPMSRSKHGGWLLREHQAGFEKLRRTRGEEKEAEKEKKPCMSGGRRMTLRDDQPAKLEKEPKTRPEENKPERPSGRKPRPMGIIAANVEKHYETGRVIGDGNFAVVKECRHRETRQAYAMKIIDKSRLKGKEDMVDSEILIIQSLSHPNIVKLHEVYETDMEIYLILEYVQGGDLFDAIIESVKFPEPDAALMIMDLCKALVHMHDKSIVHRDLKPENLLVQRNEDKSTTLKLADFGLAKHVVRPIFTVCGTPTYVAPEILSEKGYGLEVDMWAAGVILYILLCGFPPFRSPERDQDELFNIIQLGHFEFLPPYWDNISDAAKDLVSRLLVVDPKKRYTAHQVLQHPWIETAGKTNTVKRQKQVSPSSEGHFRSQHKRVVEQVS
Chain of MAP3K2 (human) (Q9Y2U5 whole entry, looked up): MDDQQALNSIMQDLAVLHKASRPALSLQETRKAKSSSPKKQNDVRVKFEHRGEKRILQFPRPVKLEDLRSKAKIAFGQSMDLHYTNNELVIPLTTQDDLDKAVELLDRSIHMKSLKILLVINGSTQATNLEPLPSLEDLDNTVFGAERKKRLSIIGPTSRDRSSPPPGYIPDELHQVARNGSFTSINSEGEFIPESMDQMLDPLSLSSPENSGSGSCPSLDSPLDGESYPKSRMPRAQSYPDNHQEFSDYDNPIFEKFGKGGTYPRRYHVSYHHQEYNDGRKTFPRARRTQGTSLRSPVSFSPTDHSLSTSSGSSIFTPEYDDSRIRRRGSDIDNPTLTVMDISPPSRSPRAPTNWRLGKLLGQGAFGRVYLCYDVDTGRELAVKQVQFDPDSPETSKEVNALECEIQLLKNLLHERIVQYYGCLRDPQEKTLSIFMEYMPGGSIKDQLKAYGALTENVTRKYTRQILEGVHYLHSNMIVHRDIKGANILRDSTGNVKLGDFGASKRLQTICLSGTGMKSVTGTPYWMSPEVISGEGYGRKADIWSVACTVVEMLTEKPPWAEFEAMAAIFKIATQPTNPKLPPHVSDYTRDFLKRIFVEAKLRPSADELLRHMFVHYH
Chain of EPHB6 (human) (O15197 whole entry, looked up): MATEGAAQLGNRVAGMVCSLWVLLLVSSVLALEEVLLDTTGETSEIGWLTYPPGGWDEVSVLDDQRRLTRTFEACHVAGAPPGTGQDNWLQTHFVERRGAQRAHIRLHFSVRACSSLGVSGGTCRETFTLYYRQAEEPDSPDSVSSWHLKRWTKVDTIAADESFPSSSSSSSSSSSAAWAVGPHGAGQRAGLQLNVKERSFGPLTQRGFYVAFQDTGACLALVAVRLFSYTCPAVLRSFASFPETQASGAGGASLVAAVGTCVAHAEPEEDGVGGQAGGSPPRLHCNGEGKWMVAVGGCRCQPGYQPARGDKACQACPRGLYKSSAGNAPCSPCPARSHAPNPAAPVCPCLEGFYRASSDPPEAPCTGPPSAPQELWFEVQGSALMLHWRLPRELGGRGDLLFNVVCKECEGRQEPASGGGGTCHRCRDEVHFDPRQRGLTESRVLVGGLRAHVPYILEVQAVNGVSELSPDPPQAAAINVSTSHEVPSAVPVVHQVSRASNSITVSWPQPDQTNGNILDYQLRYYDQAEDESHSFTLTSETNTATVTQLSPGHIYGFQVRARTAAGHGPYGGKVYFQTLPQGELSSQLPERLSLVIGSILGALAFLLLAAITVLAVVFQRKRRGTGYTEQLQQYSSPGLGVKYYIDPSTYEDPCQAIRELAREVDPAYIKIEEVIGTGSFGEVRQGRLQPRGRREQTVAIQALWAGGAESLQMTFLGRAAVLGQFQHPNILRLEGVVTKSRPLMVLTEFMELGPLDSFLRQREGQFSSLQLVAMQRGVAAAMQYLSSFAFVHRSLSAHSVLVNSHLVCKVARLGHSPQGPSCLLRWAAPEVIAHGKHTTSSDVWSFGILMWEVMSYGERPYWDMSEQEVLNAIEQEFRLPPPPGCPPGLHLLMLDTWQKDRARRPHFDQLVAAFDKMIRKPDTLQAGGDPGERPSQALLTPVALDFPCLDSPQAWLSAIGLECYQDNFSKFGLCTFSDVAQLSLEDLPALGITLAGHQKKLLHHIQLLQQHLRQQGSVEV
Chain of CDK14 (human) (O94921 whole entry, looked up): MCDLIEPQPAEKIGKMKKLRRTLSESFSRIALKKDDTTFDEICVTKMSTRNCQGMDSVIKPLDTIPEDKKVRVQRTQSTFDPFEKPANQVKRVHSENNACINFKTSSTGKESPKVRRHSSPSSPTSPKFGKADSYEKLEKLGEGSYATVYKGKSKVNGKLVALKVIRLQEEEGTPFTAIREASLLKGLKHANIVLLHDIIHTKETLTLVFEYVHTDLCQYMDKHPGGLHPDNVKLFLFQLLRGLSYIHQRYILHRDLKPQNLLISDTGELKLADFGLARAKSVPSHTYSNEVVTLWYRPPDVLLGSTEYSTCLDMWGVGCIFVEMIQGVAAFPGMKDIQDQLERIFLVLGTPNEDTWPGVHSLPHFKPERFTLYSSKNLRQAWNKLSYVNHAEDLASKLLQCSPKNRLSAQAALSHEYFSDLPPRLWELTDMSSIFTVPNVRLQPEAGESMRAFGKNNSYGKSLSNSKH
Chain of TXK (human) (P42681 whole entry, looked up): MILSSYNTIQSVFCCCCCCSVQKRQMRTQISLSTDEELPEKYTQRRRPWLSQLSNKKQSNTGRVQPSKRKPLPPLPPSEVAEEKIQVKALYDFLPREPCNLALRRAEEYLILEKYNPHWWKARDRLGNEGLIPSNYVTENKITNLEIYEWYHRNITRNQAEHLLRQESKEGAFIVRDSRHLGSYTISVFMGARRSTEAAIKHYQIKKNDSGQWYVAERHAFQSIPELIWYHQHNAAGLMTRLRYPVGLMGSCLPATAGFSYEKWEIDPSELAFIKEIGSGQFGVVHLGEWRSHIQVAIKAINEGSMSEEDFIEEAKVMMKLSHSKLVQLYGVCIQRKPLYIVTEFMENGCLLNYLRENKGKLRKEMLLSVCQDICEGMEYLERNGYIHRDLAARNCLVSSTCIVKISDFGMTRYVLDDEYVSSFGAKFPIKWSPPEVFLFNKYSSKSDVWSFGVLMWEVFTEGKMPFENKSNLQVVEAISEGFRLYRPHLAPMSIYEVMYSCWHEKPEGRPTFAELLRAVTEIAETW
Chain of ACVR1 (human) (Q04771 whole entry, looked up): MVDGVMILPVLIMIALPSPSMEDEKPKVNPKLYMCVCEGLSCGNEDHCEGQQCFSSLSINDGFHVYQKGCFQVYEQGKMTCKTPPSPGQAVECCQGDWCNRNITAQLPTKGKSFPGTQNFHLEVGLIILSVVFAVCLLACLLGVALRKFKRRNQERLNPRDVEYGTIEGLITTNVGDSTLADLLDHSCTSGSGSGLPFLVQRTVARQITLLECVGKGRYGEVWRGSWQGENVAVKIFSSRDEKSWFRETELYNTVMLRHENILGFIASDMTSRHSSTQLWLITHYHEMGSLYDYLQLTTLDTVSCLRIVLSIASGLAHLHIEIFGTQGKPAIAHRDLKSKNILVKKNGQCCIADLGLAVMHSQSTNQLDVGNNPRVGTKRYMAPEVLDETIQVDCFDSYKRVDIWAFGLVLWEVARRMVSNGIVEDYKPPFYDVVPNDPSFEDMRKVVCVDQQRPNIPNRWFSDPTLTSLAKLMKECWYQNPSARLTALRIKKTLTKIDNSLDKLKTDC
Chain of PIP5K1A (human) (Q99755 whole entry, looked up): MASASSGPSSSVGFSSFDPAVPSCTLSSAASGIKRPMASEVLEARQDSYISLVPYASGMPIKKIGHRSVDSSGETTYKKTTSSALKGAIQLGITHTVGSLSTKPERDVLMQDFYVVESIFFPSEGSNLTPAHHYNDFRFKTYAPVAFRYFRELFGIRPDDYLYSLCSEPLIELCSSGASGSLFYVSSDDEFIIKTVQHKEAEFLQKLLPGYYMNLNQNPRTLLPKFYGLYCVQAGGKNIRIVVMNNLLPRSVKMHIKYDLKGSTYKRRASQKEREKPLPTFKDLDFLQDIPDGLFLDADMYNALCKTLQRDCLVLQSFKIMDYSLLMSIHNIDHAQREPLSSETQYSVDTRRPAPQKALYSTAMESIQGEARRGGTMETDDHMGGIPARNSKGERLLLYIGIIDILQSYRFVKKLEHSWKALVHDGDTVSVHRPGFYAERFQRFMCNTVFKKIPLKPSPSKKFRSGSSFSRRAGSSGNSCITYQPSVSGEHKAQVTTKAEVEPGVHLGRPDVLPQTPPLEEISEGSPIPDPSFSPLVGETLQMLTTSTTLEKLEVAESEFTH

kinase still bound, per cent of control (CDK7 (human)): 64%
kinase still bound, per cent of control (MATK (human)): 79%
kinase still bound, per cent of control [1]: 75%
kinase still bound, per cent of control (TGFBR1 (human)): 100%
kinase still bound, per cent of control (GRK1 (human)): 96%
kinase still bound, per cent of control (AXL (human)): 100%
kinase still bound, per cent of control (ACVR2B (human)): 100%
kinase still bound, per cent of control (CSNK1A1L (human)): 100%
kinase still bound, per cent of control (MAP4K3 (human)): 96%
kinase still bound, per cent of control (PLK3 (human)): 80%
kinase still bound, per cent of control (CDK19 (human)): 100%
kinase still bound, per cent of control (AKT1 (human)): 100%
kinase still bound, per cent of control (RPS6KA2 KD2 (human)): 100%
kinase still bound, per cent of control (RPS6KA4 KD2 (human)): 80%
kinase still bound, per cent of control (MAP3K2 (human)): 93%
kinase still bound, per cent of control (PAK4 (human)): 100%
kinase still bound, per cent of control (ACVR1 (human)): 100%
kinase still bound, per cent of control (TBK1 (human)): 96%
kinase still bound, per cent of control (LCK (human)): 100%
kinase still bound, per cent of control (RIOK2 (human)): 22%
kinase still bound, per cent of control (PDPK1 (human)): 99%
kinase still bound, per cent of control (MAST1 (human)): 79%
kinase still bound, per cent of control [2]: 100%
kinase still bound, per cent of control (BMP2K (human)): 99%
kinase still bound, per cent of control (AKT3 (human)): 100%
kinase still bound, per cent of control (STK38 (human)): 100%
kinase still bound, per cent of control (RET (human)): 100%
kinase still bound, per cent of control (CHUK (human)): 100%
kinase still bound, per cent of control (YES1 (human)): 100%
kinase still bound, per cent of control (SRPK3 (human)): 100%
kinase still bound, per cent of control [3]: 100%
kinase still bound, per cent of control (DCLK3 (human)): 34%
kinase still bound, per cent of control (TXK (human)): 100%
kinase still bound, per cent of control (PIP5K1A (human)): 100%
kinase still bound, per cent of control (MAPK11 (human)): 100%
kinase still bound, per cent of control (PAK6 (human)): 100%
kinase still bound, per cent of control (CDK14 (human)): 100%
kinase still bound, per cent of control (EPHB6 (human)): 100%
kinase still bound, per cent of control [4]: 100%
kinase still bound, per cent of control (IRAK3 (human)): 100%
kinase still bound, per cent of control [5]: 100%
kinase still bound, per cent of control (CSNK1G2 (human)): 59%
SMILES: Cc1cnc(-c2cnc(NCCNc3ccc(C#N)cn3)nc2-c2ccc(Cl)cc2Cl)[nH]1

kinase still bound, per cent of control (CDK7 (human)): 12%
kinase still bound, per cent of control (MATK (human)): 30%
kinase still bound, per cent of control [1]: 0%
kinase still bound, per cent of control (TGFBR1 (human)): 83%
kinase still bound, per cent of control (GRK1 (human)): 60%
kinase still bound, per cent of control (AXL (human)): 0.25%
kinase still bound, per cent of control (ACVR2B (human)): 20%
kinase still bound, per cent of control (CSNK1A1L (human)): 36%
kinase still bound, per cent of control (MAP4K3 (human)): 24%
kinase still bound, per cent of control (PLK3 (human)): 100%
kinase still bound, per cent of control (CDK19 (human)): 100%
kinase still bound, per cent of control (AKT1 (human)): 100%
kinase still bound, per cent of control (RPS6KA2 KD2 (human)): 79%
kinase still bound, per cent of control (RPS6KA4 KD2 (human)): 44%
kinase still bound, per cent of control (MAP3K2 (human)): 56%
kinase still bound, per cent of control (PAK4 (human)): 21%
kinase still bound, per cent of control (ACVR1 (human)): 32%
kinase still bound, per cent of control (TBK1 (human)): 32%
kinase still bound, per cent of control (LCK (human)): 4.8%
kinase still bound, per cent of control (RIOK2 (human)): 18%
kinase still bound, per cent of control (PDPK1 (human)): 20%
kinase still bound, per cent of control (MAST1 (human)): 2.8%
kinase still bound, per cent of control [2]: 100%
kinase still bound, per cent of control (BMP2K (human)): 0.65%
kinase still bound, per cent of control (AKT3 (human)): 100%
kinase still bound, per cent of control (STK38 (human)): 86%
kinase still bound, per cent of control (RET (human)): 0%
kinase still bound, per cent of control (CHUK (human)): 83%
kinase still bound, per cent of control (YES1 (human)): 6.4%
kinase still bound, per cent of control (SRPK3 (human)): 0.25%
kinase still bound, per cent of control [3]: 100%
kinase still bound, per cent of control (DCLK3 (human)): 8%
kinase still bound, per cent of control (TXK (human)): 15%
kinase still bound, per cent of control (PIP5K1A (human)): 0%
kinase still bound, per cent of control (MAPK11 (human)): 100%
kinase still bound, per cent of control (PAK6 (human)): 24%
kinase still bound, per cent of control (CDK14 (human)): 18%
kinase still bound, per cent of control (EPHB6 (human)): 0.3%
kinase still bound, per cent of control [4]: 2.3%
kinase still bound, per cent of control (IRAK3 (human)): 26%
kinase still bound, per cent of control [5]: 100%
kinase still bound, per cent of control (CSNK1G2 (human)): 78%
SMILES: O=C1Nc2cc(Br)ccc2/C1=C1/Nc2ccccc2/C1=N\O

kinase still bound, per cent of control (CDK7 (human)): 100%
kinase still bound, per cent of control (MATK (human)): 95%
kinase still bound, per cent of control [1]: 89%
kinase still bound, per cent of control (TGFBR1 (human)): 82%
kinase still bound, per cent of control (GRK1 (human)): 100%
kinase still bound, per cent of control (AXL (human)): 100%
kinase still bound, per cent of control (ACVR2B (human)): 100%
kinase still bound, per cent of control (CSNK1A1L (human)): 99%
kinase still bound, per cent of control (MAP4K3 (human)): 90%
kinase still bound, per cent of control (PLK3 (human)): 100%
kinase still bound, per cent of control (CDK19 (human)): 100%
kinase still bound, per cent of control (AKT1 (human)): 86%
kinase still bound, per cent of control (RPS6KA2 KD2 (human)): 83%
kinase still bound, per cent of control (RPS6KA4 KD2 (human)): 85%
kinase still bound, per cent of control (MAP3K2 (human)): 96%
kinase still bound, per cent of control (PAK4 (human)): 74%
kinase still bound, per cent of control (ACVR1 (human)): 98%
kinase still bound, per cent of control (TBK1 (human)): 100%
kinase still bound, per cent of control (LCK (human)): 100%
kinase still bound, per cent of control (RIOK2 (human)): 23%
kinase still bound, per cent of control (PDPK1 (human)): 78%
kinase still bound, per cent of control (MAST1 (human)): 98%
kinase still bound, per cent of control [2]: 100%
kinase still bound, per cent of control (BMP2K (human)): 100%
kinase still bound, per cent of control (AKT3 (human)): 92%
kinase still bound, per cent of control (STK38 (human)): 100%
kinase still bound, per cent of control (RET (human)): 100%
kinase still bound, per cent of control (CHUK (human)): 100%
kinase still bound, per cent of control (YES1 (human)): 83%
kinase still bound, per cent of control (SRPK3 (human)): 100%
kinase still bound, per cent of control [3]: 100%
kinase still bound, per cent of control (DCLK3 (human)): 66%
kinase still bound, per cent of control (TXK (human)): 100%
kinase still bound, per cent of control (PIP5K1A (human)): 70%
kinase still bound, per cent of control (MAPK11 (human)): 100%
kinase still bound, per cent of control (PAK6 (human)): 100%
kinase still bound, per cent of control (CDK14 (human)): 95%
kinase still bound, per cent of control (EPHB6 (human)): 100%
kinase still bound, per cent of control [4]: 100%
kinase still bound, per cent of control (IRAK3 (human)): 100%
kinase still bound, per cent of control [5]: 96%
kinase still bound, per cent of control (CSNK1G2 (human)): 82%
SMILES: COc1ccc(CNC(=O)Nc2ncc([N+](=O)[O-])s2)cc1
